The subject of test [1] is Toxoplasma gondii RH tachyzoites. Put plainly: median egress time after A23187 ionophore; higher = stronger egress inhibition. The following applies: 10 µM; pretreatment time: 24 h. The method, then: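 T. gondii RH tachyzoites expressing firefly luciferase were grown in HFF monolayers for 48 h with compound. % growth inhibition at 10 µM and EC50 (2-fold dilutions from 10 µM) were read by luminescence relative to 1% DMSO; EC50 listed as 10 (not determined, <80% inhibition) is left out. Plaque assays: 50 tachyzoites per well with 10 µM compound for 8-10 days, giving plaque count and area by crystal violet/ImageJ. Egress: median time to egress after 1 µM A23187 ionophore following 24 h of 10 µM compound (DMSO ~1.8 min; >10 = no egress within 10 min).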

Test [2] concerns Plasmodium falciparum 3D7. Kind of test: EC50 growth inhibition (60 h, SYBR Green). The note with it: stage: ring-stage start.
In test [3] the test system is Toxoplasma gondii RH tachyzoites. Kind of test: % growth inhibition vs DMSO (48 h luciferase); higher = more inhibition. The note with it: 10 µM.
Test [4] shares this test system. Kind of test: plaque count per well; higher = less inhibition; extreme values may be limits of the assay. The following applies: 10 µM; 8-10 days. The gist of the method:
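The per-well plaque count reflects delayed-death inhibition of parasite growth. Each well of a six-well plate with a confluent HFF monolayer, preseeded with compound at 10 µM, was given fifty T. gondii RH tachyzoites. Plates sat undisturbed for 8 to 10 days before methanol fixation and crystal violet staining. Plaques were then imaged and counted per well with ImageJ, alongside untreated wells and wells treated with 1% DMSO.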

Test [5] deals with Plasmodium falciparum 3D7. Put plainly: % inhibition of schizont-to-ring transition vs DMSO; higher = more inhibition. The gist of the method:
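Schizont-to-ring transition inhibition is the formation of new rings relative to vehicle controls. Tightly synchronised P. falciparum schizonts at about 40–42 hours post-invasion (1% parasitemia, 2.5% hematocrit, AlbuMAX-supplemented RPMI) were treated with compound at 1, 3 or 10 µM, alongside vehicle and positive controls. After glutaraldehyde fixation, Triton permeabilisation and Hoechst 33342 staining, at least 100,000 events were counted by flow cytometry, and values are the mean of three experiments.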

± gives the standard deviation. Bounds are passed on as bounds.
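For % growth inhibition vs DMSO (48 h luciferase) in this document: tested in triplicate wells of 96-well plates on confluent HFF monolayers, with 1% DMSO wells as negative control in four replicates.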

`O=C(NC1CCN(Cc2ccccc2)CC1)c1cc(-c2cccnc2)nc2ccc(Cl)cc12`: in test [1], the median egress time was determined as 2.67 min. For the same compound, the EC50 growth inhibition in test [2] stood at 2560 nM. Also, the “% growth inhibition” value in test [3] was 19.7 ± 17%. For the same compound, the “plaque count per well” value in test [4] is 34. For the same compound, the “% inhibition of schizont-to-ring transition” value (“% inhibition” below) in test [5] (1 µM) worked out at 13.5%; in test [5] (3 µM), 17.4%; in test [5] (10 µM) it was 37.7%.

For `CCOc1ccccc1CN1CCc2nc3cc(C(C)(C)C)nn3c(O)c2C1`, the median egress time in test [1] came out at 1.47 min. Further, the EC50 growth inhibition in test [2] worked out at 2290 nM. Moreover, the “% growth inhibition” value in test [3] is < 0%. Also, the “plaque count per well” value in test [4] came to 28. Further, the results for the “% inhibition” value in test [5] (1 µM), in test [5] (3 µM) and in test [5] (10 µM) were 34.2%, 42.8% and 49.8%, respectively.

For the compound `COc1ccc2sc(N(Cc3cccnc3)C(=O)c3ccc(C#N)cc3)nc2c1`, the median egress time in test [1] is > 10 min. In test [2], this compound had an EC50 growth inhibition of 6590 nM. For the same compound, in test [3], the “% growth inhibition” value is < 0%. Besides, in test [4], the “plaque count per well” value was found to be 21. Moreover, the “% inhibition” value in test [5] (1 µM) is 35.3%; in test [5] (3 µM), 39.1%; in test [5] (10 µM), 51.7%.

As to `Oc1ccc(Br)cc1CN1CCN(Cc2cccc(F)c2)CC1`, in test [1], the median egress time was 2.27 min. In test [2], this compound returned an EC50 growth inhibition of 787 nM. The “% growth inhibition” value in test [3] turned out to be 6.13 ± 7.3%. Further, in test [4], the “plaque count per well” value stood at 21. Further, the “% inhibition” value was determined as 19% in test [5] (1 µM), 40.9% in test [5] (3 µM) and 60.6% in test [5] (10 µM).

With `Cn1c(C(=O)c2cccc3ccccc23)nc2ccccc21`, in test [1], the median egress time was 2.4 min. The compound also displayed an EC50 growth inhibition in test [2] of 147 nM. For the same compound, the “% growth inhibition” value in test [3] turned out to be 9.52 ± 8.7%. Moreover, the “plaque count per well” value in test [4] is 24. Besides, the entries for the “% inhibition” value in test [5] (1 µM), in test [5] (3 µM) and in test [5] (10 µM) were 53%, 65.5% and 70.2%, respectively.

For `CCOc1cccc(C(=O)Nc2ccc(-c3nc4ccccc4[nH]3)cc2)c1`, the median egress time in test [1] was determined as 1.87 min. In test [3], the “% growth inhibition” value was < 0%. Also, the “plaque count per well” value in test [4] amounted to 28. Further, the “% inhibition” value in test [5] (1 µM) was 7.94%; in test [5] (3 µM) it was 22.4%; in test [5] (10 µM) it was 54.6%.

As to `Cc1cc(NC(=O)c2ccc(-c3ccccc3)cc2)no1`, the median egress time in test [1] stood at 2.27 min. Also, the EC50 growth inhibition in test [2] was 1810 nM. The “% growth inhibition” value in test [3] was < 0%. Further, in test [4], the “plaque count per well” value worked out at 26. The “% inhibition” value in test [5] (1 µM) stood at 45.3%; in test [5] (3 µM), 53.4%; in test [5] (10 µM), 61.7%.

Regarding `Cc1ccc(C)c(-c2csc(Nc3ccc(C)c(C)c3)n2)c1`, the median egress time in test [1] was found to be 3.2 min. For the same compound, the “% growth inhibition” value in test [3] was < 0%. Further, in test [4], the “plaque count per well” value was 22. In addition, the entries for the “% inhibition” value in test [5] (1 µM), in test [5] (3 µM) and in test [5] (10 µM) were 13.5%, 16% and 20.4%, respectively.

Take `CC(NCc1ccccc1)c1cc(Cl)ccc1O` (centres undefined): in test [1], the median egress time was determined as 2.27 min. The compound also registered an EC50 growth inhibition in test [2] of 801 nM. For the same compound, the “% growth inhibition” value in test [3] amounted to 14.9 ± 6%. Further, in test [4], the “plaque count per well” value came out at 29. Also, the results for the “% inhibition” value in test [5] (1 µM), in test [5] (3 µM) and in test [5] (10 µM) were 29.2%, 44.4% and 66.6%, respectively.

For `Cc1cc(C)c2c(c1)OCN(Cc1ccccc1Cl)C2`, the median egress time in test [1] stood at 2 min. For the same compound, the EC50 growth inhibition in test [2] worked out at 3620 nM. In addition, in test [3], the “% growth inhibition” value was 4.95 ± 8.6%. In test [4], the “plaque count per well” value worked out at 27. Besides, the “% inhibition” value in test [5] (1 µM) was < 0%; in test [5] (3 µM), 17.9%; in test [5] (10 µM), 59.9%.

Turning to `CCCC(c1nnnn1C1CCCCC1)N1CCN(C(=O)c2ccco2)CC1` (centres undefined), the median egress time in test [1] came out at 2.4 min. This compound gave an EC50 growth inhibition in test [2] of 1470 nM. Besides, in test [3], the “% growth inhibition” value came out at 9.52 ± 8.7%. For the same compound, the “plaque count per well” value in test [4] was 24. Besides, the “% inhibition” value was 9.2% in test [5] (1 µM), 14.6% in test [5] (3 µM) and 32.1% in test [5] (10 µM).

For the compound `CCCCCCc1cc2cc(-c3csc(C=Cc4ccccc4)n3)c(=O)oc2cc1O`, the median egress time in test [1] was determined as 1.94 min. In test [2], this compound came in with an EC50 growth inhibition of 8400 nM. Also, the “% growth inhibition” value in test [3] was 8.97 ± 4.1%. In test [4], the “plaque count per well” value was 16. Besides, the figures for the “% inhibition” value in test [5] (1 µM), in test [5] (3 µM) and in test [5] (10 µM) were 9.04%, 16% and 39.7%, respectively.

Consider `COc1cccc(-c2nn(C)c3sc(C(=O)NCCN4CCN(c5ccccc5F)CC4)cc23)c1`, for which the median egress time in test [1] came out at 2.93 min. For the same compound, the EC50 growth inhibition in test [2] is 4200 nM. In test [3], the “% growth inhibition” value came to 1.85 ± 3.2%. Further, the “plaque count per well” value in test [4] amounted to 31. Also, the “% inhibition” value was determined as 12.9% in test [5] (1 µM), 36.3% in test [5] (3 µM) and 60.8% in test [5] (10 µM).

Consider `Oc1ccc(-c2nc(-c3ccc4oc5ccc(-c6[nH]c(-c7ccc(O)cc7)nc6-c6ccccc6)cc5c4c3)c(-c3ccccc3)[nH]2)cc1`, for which, in test [1], the median egress time was 1.47 min. For the same compound, the EC50 growth inhibition in test [2] came to 1890 nM. Besides, the “% growth inhibition” value in test [3] was < 0%. The “plaque count per well” value in test [4] stood at 11. Further, the “% inhibition” value in test [5] (1 µM) is 8.13%; in test [5] (3 µM) it was 15.7%; in test [5] (10 µM), 48.8%.

Consider `Cc1c(C)n(CC(O)CNC2CCCCC2C)c2ccccc12` (centres undefined), for which the median egress time in test [1] came out at 3.07 min. Besides, in test [2], the EC50 growth inhibition stood at 2180 nM. In addition, in test [3], the “% growth inhibition” value is < 0%. Moreover, the “plaque count per well” value in test [4] was found to be 23. Also, the entries for the “% inhibition” value in test [5] (1 µM), in test [5] (3 µM) and in test [5] (10 µM) were 14.4%, 32.3% and 64.2%, respectively.

For `COc1cc(-c2nc(-c3ccccc3)c(-c3ccccc3)[nH]2)cc(OC)c1O`, the median egress time in test [1] is 2.93 min. Besides, the EC50 growth inhibition in test [2] came to 8620 nM. For the same compound, the “% growth inhibition” value in test [3] worked out at 6.6 ± 11%. Further, the “plaque count per well” value in test [4] was 22. For the same compound, the entries for the “% inhibition” value in test [5] (1 µM), in test [5] (3 µM) and in test [5] (10 µM) were 13.7%, 15.2% and 37.4%, respectively.

Consider `CC(=O)Nc1nnc(SCc2c(C)cc(C(C)(C)C)cc2C)s1`, for which the median egress time in test [1] is 2.4 min. In addition, the “% growth inhibition” value in test [3] is < 0%. Also, in test [4], the “plaque count per well” value came to 21. Further, the “% inhibition” value in test [5] (1 µM) was determined as 42.7%; in test [5] (3 µM) it was 46.5%; in test [5] (10 µM) it was 55.4%.

`CCOc1cc(Cl)c(C(C)NC(=O)c2ccccc2)cc1OCC` (centres undefined): the median egress time in test [1] came to 2.67 min. In test [2], this compound had an EC50 growth inhibition of 1450 nM. In test [3], the “% growth inhibition” value was < 0%. In addition, the “plaque count per well” value in test [4] turned out to be 22. For the same compound, the “% inhibition” value came out at 46.5% in test [5] (1 µM), 78.6% in test [5] (3 µM) and 76.7% in test [5] (10 µM).

In the case of `O=C(NC1CCCCC1)C(c1cccs1)N(CCc1ccccc1)C(=O)c1ccco1` (centres undefined), the median egress time in test [1] stood at 2.06 min. Further, in test [2], the EC50 growth inhibition turned out to be 1720 nM. The “% growth inhibition” value in test [3] is < 0%. The “plaque count per well” value in test [4] amounted to 39. The “% inhibition” value in test [5] (1 µM) was determined as 38.6%; in test [5] (3 µM), 42%; in test [5] (10 µM), 46.4%.

As for `Oc1ccccc1CN1CCC2(CCCN(Cc3ccccc3F)C2)C1` (centres undefined), the median egress time in test [1] amounted to 2.13 min. The EC50 growth inhibition in test [2] worked out at 1140 nM. Further, the “% growth inhibition” value in test [3] was < 0%. In test [4], the “plaque count per well” value is 26. In addition, the “% inhibition” value in test [5] (1 µM) worked out at 31.4%; in test [5] (3 µM), 37.7%; in test [5] (10 µM), 60.6%.

As to `OC(CNC1CCCCC1)Cn1c2ccc(I)cc2c2cc(I)ccc21` (centres undefined), in test [1], the median egress time stood at 1.33 min. The compound also returned an EC50 growth inhibition in test [2] of 591 nM. Besides, the “% growth inhibition” value in test [3] was < 0%. In test [4], the “plaque count per well” value was found to be 3. For the same compound, the “% inhibition” value in test [5] (1 µM) turned out to be 39.7%; in test [5] (3 µM), 69%; in test [5] (10 µM), 73.8%.

These data come from the supplement of paper PMC5770543.
